Data set [1] deals with A549 cells. The experiment in a line: MTT cytotoxicity assay, A549. The format is cell-based, human. From the text: A549 cell line (lung carcinoma from human) (European Collection of Cell Culture) and HT-29 cell line (colorectal adenocarcinoma from human) (American Type Culture Collection) were chosen to evaluate the cytotoxicity of novel compounds.
(§1) The MTT assay was used to evaluate cell metabolic activity. The test principle is based on the determination of cell viability by measuring the metabolic activity in mitochondria. Enzymatically active mitochondria reduce the water-soluble MTT (3-(4,5-dimethylthiazol-2-yl)-2,5 diphenyltetrazoliumbromide) to blue–violet insoluble formazan. The number of viability cells is proportional to the colour intensity determined by photometric measurements (an analytical wavelength 570 nm) after dissolving the formazan in Dimethylsulfoxide (DMSO) (Serva) and Sorensen’s glycine buffer. MTT (Sigma Aldrich) was dissolved in Phosphate Buffered Saline (PBS) (PAN-Biotech) at a concentration of 0.5 mg/mL. Sorensen’s glycine buffer is made of 0.1 M glycine and 0.1 M NaCl, at pH 10.5. Studied compounds were dissolved in DMSO in order to receive stock solutions.
(§2) For the assay, cells were seeded into 96-well plates at density 10^4 cells per well and cultured for 24 h at 37 °C and 5% CO2. Then medium was removed, and cells were exposed to the 100 µL of the compound solutions over a range of concentrations (final DMSO concentration was below 0.2%) or nothing but culture medium (blank control). Pure DMSO was used as a positive control. After 24 h of incubation with the compound solutions, medium was removed and 50 µL of the MTT solution was added to each well and incubated in the dark for additional 2 h at 37 °C. Then the MTT solution was carefully removed and 100 µL of DMSO was added. Plates were incubated for 10 min at room temperature. Finally, 5 µL of Sorensen Buffer was added to each well. Plate was swayed, and the absorbance was measured by using microplate reader (Synergy H1, BioTek, Winooski, VT, USA) at a wavelength of 570 nm. The cell viability was expressed as a percentage of the control values (blank). The experiments were done in triplicate.
On the technique in general: Tetrazolium assays rely on reduction of a dye to a coloured formazan, in cell work by metabolically active cells.

In a further data set the test system is EA.hy926 cells. Briefly: MTT cytotoxicity assay, EA.hy926. The data set is classed as cell-based, human.
Text: The EA.hy926 cells (the human umbilical vein, somatic cell hybrid) (American Type Culture Collection) are immortalized human umbilical vein endothelial cells. They have morphological, phenotypic and functional characteristics of human endothelial cells, without the limited lifespan. This cell line has been considered as a good model for anticancer drug screening and was chosen to evaluate the endothelial cytotoxicity of novel compounds.
as §1, §2

Data set [2] concerns A549 cells. The experiment in a line: Cell cycle analysis (PI, flow cytometry), A549. The data set is classed as cell-based, human. The settings on record: A549, 24 h, 10 µM. As for the experimental part:
(§3) Then, compounds were added into the wells and cells were further incubated for 24 h. After incubation, monolayer and supernatant cells were harvested and washed in PBS. Then, cells were centrifuged (monolayer—1200 rpm for 10 min, supernatant 3500 rpm for 10 min) and fixed in cold 70% ethanol. Pellets were kept at 4 °C for at least 2 h. Prior to analysis, cells were centrifuged and re-suspended in RNAsi (type 1-A; Sigma Aldrich)—PBS working solution (200 µg/mL). Samples were incubated at 37 °C for 10 min. At the end, 3 µL of 2 mg/mL propidium iodide (PI) (Sigma Aldrich) solution was added to each sample. Samples were kept in the dark prior to analysis. Analysis was performed on BD Accuri C6 Flow Cytometry (Becton–Dickinson). Etoposide (Calbiochem) was used as a reference drug. Experiments were done in triplicates.
A general note: Flow cytometry measures light scatter and fluorescence of single cells or particles in a stream.

Data set [3] relates to HT-29 cells. Briefly: Cell cycle analysis (PI, flow cytometry), HT-29. The format is cell-based, human. The note with it: HT-29, 24 h, 10 µM. Here is the method:
as §3

The test system of data set [4] is A549 cells. Briefly: Apoptosis assay by annexin-V/PI double staining, A549. The settings on record: A549, 24 h, 75 µM; control 7.80%. The format is cell-based, human. Here is the method: (§4) Compounds were added to the cells and further incubated for 24 h. After treatment, monolayer and supernatant cells were harvested, washed with PBS and centrifuged (monolayer at 1200 rpm for 10 min, supernatant at 3500 rpm for 10 min). Then, cells were re-suspended in binding buffer and stained with 2 µL of Annexin-V and […] of PI (ANNEXIN-V—FITC Apoptosis Detection Kit, Immunostep) in the dark for 10 min at room temperature. Cells were analysed by BD Accuri C6 Flow Cytometry (Becton–Dickinson). Etoposide (Calbiochem) was used as a reference drug. Experiments were done in triplicates.

For data set [5], the system named is HT-29 cells. Briefly: Apoptosis assay by annexin-V/PI double staining, HT-29. The data set is classed as cell-based, human. The settings on record: HT-29, 24 h, 25 µM; control 8.62%. As for the experimental part:
as §4

Data set [6] concerns HT-29 cells. Briefly: MTT cytotoxicity assay, HT-29. The data set is classed as cell-based. The settings on record: Homo sapiens, HT-29, 24 h, read-out: IC50 µM ± SD against HT-29.
Text: as §1, §2

The test system of the next data set is PARP-1. Briefly: Western blot of PARP-1 cleavage, HT-29. The format is cell-based, human. The note with it: HT-29, 24 h, IC50 and 1/2IC50. As for the experimental part:
(§5) Then, cells were treated with chosen compounds. After 24 h of incubation, monolayer and supernatant were harvested and washed in cold PBS. Cells were centrifuged—monolayer at 1200 rpm for 10 min, supernatant 3500 rpm for 10 min. Pellets were dissolved in RIPA Lysis and Extraction buffer (Bio-Rad) containing Phosphatase Inhibitor Cocktail 3 (Sigma Aldrich) and Protease Inhibitor Cocktail (Sigma Aldrich). Samples were incubated in ice for 30 min and mixed every 10 min. Then, samples were centrifuged at 12,000 rpm for 25 min. Protein concentration in supernatants was measured in triplicate using a Protein Assay (Bio-Rad). Proteins were separated by SDS–polyacrylamide gel electrophoresis. Separating and stacking gels were made of different ratios of water, Tris–HCl pH 6.8 and pH 8.8, 10% SDS (Sigma Aldrich), Acrylamide/bis-acrylamide (Sigma Aldrich), 10% APS (Sigma Aldrich), TEMED (Sigma Aldrich). 7.5% gels were prepared for analysis PARP-1, whereas 12% gels prepared for γ-H2AX. After separation on SDS–polyacrylamide gels, proteins were electroblotted on nitrocellulose membrane in Transfer Buffer (Glycine, Tris, Methanol). Membranes were washed in TBS/0.1% or 0.05% Tween20 solution and blocked in Tris-buffered saline with 5% of non-fated dried milk for 1 h. Membranes were then incubated overnight with primary antibodies—anti-PARP-1 (Cell Signaling Technology), anti-γ-H2A.X (Cell Signaling Technology), anti-β-actin (Cell Signaling Technology) in cold room (6 °C). After incubation, membranes well washed with TBS/Tween solution and blocked with and horseradish peroxidase-conjugated secondary antibodies (Bio-Rad) for 1 h in cold room. Protein bands were visualized using ECL™ Prime Western Blotting Detection Reagents (Sigma Aldrich) Healthcare and Carestream Kodak autoradiography GBX fixer/replenisher (Sigma Aldrich) with Developer and Replenisher (Carestream) in the dark room. Results were obtained on Autoradiography Film (Santa Cruz Biotechnology). Densitometric analysis was performed by using a software program (ImageJ). […]

Another data set deals with γ-H2AX. Briefly: Western blot of γ-H2AX, HT-29. The format is cell-based, human. The note with it: HT-29, 24 h, IC50 and 1/2IC50. As for the experimental part:
as §5

The test system of data set [7] is SH-SY5Y cells. Briefly: Cytoprotection against rotenone/oligomycin A, pre-incubation, MTT.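 On Cytoprotection: Toxic mixture Rotenone 30 µM plus Oligomycin A 10 µM.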 The format is cell-based, human. The note with it: for Cytoprotection: pre-incubation with rotenone/oligomycin A. Here is the method:
Rotenone with oligomycin A (R/O) were taken to induce mitochondrial ROS by blocking of complexes I and V of the mitochondrial electron transport chain. It causes free radical production and blockade of ATP synthesis. In the pre-incubation experiment, it could be assessed whether the compounds have cytoprotective properties due to the activation of endogenous antioxidant pathways. In the co-incubation could be shown whether compounds are free-radical scavengers. MTT assay was a test of choice, because in this assay mitochondrial activity is measured. […] It can be determined whether novel compound would protect cells from both apoptotic and necrotic death resulting from the increase of intracellular ROS. In both experiments, trolox was used as a reference compound. […] After this time, toxic mixture was added, and cells were maintained for an additional 24 h in the presence of the compounds.

Data set [8] concerns HT-29 cells. Briefly: Reactive oxygen species assay (DCFH-DA), HT-29. The note with it: compound at IC50 24 h plus H2O2, H2O2 only 1.88-fold. The data set is classed as cell-based, human. Here is the method: After incubation, compounds were added into the wells and further incubated for next 24 h. H2O2 (1 mM) was added at 22nd h of incubation with compounds. H2O2 was used as a positive control. 30 min before the analysis, DCFH-DA (20 µM) was added to the wells. After incubation, cells were harvested and washed in PBS. Then, cells were centrifuged at 1500 rpm for 10 min. Medium was removed and cells were suspended in PBS. Analysis was performed on BD Accuri C6 Flow Cytometry (Becton–Dickinson).

The subject of data set [9] is SH-SY5Y cells. The experiment in a line: Cytoprotection against H2O2 (100 µM), MTT. The settings on record: for Cells viability (%) ± SD after 24 h of incubation with compound and H2O2: H2O2 100 µM, H2O2 only 82.74%.
The test system of a further data set is supercoiled pUC19 DNA. The settings on record: 100 µM; human Topoisomerase I.

Read-outs that look alike come from different tables or passages of the source.

Broadly, the IC50 is the concentration at which inhibition is half-maximal. Broadly, the viability is a read-out of living cells in per cent, often relative to untreated cells.

`COc1cc([C@@H]2c3cc4c(cc3[C@@H](O[C@@H]3O[C@@H]5CO[C@@H](C)O[C@H]5[C@H](O)[C@H]3O)[C@H]3COC(=O)[C@H]23)OCO4)cc(OC)c1O` [Etoposide, reference compound]: the half-maximal inhibitory concentration (IC50) in the data set with A549 cells [1] (Homo sapiens, A549, 24 h, MTT, 24 h incubation, read-out: IC50 µM ± SD against A549) was 451 ± 18.3 µM; in the data set with EA.hy926 cells (Homo sapiens, EA.hy 926, 24 h, MTT, 24 h incubation, read-out: IC50 µM ± SD against EA.hy926), 155 ± 9.81 µM. The “Cells in G0/G1 phase” value in the data set on A549 cells [2] is on record as 27.31%. Besides, the “Cells in G2/M phase” value is on record as 66.02% in the data set on A549 cells [2] and 73.84% with HT-29 cells [3]. For the same molecule, in the data set on A549 cells [2], the “Cells in S phase” value is reported as 6.67%. Also, the Total apoptotic cells in the data set with A549 cells [4] is 43.46%; with HT-29 cells [5], 18.18%.

Take `O=C(NCCCCNc1c2c(nc3ccccc13)CCCC2)c1cccc(I)c1` [Compound 1f]: the IC50 was 23.5 µM in the data set with A549 cells [1] (Homo sapiens, A549, 24 h, read-out: IC50 µM ± SD against A549, MTT, 24 h incubation); 26.4 ± 2.45 µM in the data set with A549 cells [1] (read-out: IC50 µM ± SD against A549, MTT, 24 h incubation); 8.52 ± 0.1 µM in the data set with HT-29 cells [6]; 11.7 µM with EA.hy926 cells (Homo sapiens, EA.hy 926, 24 h, read-out: IC50 µM ± SD against EA.hy926, MTT, 24 h incubation); 12.4 ± 1.31 µM in the data set with EA.hy926 cells (read-out: IC50 µM ± SD against EA.hy926, MTT, 24 h incubation). For the same molecule, the “Cleaved PARP-1 (89 kDa) level (in words)” value in the data set on PARP-1 is “lower apoptosis at IC50 concentrations”. In addition, the “γ-H2AX protein level / DNA damage (in words)” value in the data set on γ-H2AX is listed as “strongest H2AX phosphorylation”. For the same molecule, the Cytoprotection in the data set with SH-SY5Y cells [7] (0.001 µM) came out at 57.16%; in the data set with SH-SY5Y cells [7] (0.01 µM) it was 35.65%; in the data set with SH-SY5Y cells [7] (0.1 µM) it was 35.21%; in the data set on SH-SY5Y cells [7] (1 µM), 30.81%. The “Cytoprotective properties in the pre-incubation assay (in words)” value in the data set on SH-SY5Y cells [7] (rotenone/oligomycin A, range of concentration 1–0.001 µM) is recorded as “showed their action against oxidative stress in the whole range of concentrations”. For the same molecule, the “Increase in ROS level (DCF fluorescence) in comparison with non-treated control” value with HT-29 cells [8] amounted to 1.87 fold. Also, the “Cells viability (%) ± SD after 24 h of incubation with compound and H2O2” value in the data set with SH-SY5Y cells [9] (concentration: 1b 16.26, 1c 6.79, 1e 11.75, 1f 4.26, 1i 5.90 µM) is 79.45 ± 9.87%; in the data set on SH-SY5Y cells [9] (concentration: 1b 65.04, 1c 27.16, 1e 46.98, 1f 17.04, 1i 29.74 µM) it was 23.85 ± 2.08 %. Moreover, the viability at 1 µM in the data set on SH-SY5Y cells [9] (Homo sapiens, 24 h, read-out: Cells viability (%) ± SD after 24 h of incubation with compound and H2O2) came to 94.3 ± 7.26%. The “Intercalation: supercoiled pUC19 DNA band (in words)” value in the data set with supercoiled pUC19 DNA was “bands at the same level as EB”.

The values are drawn from article PMC6745035, “Novel tetrahydroacridine derivatives with iodobenzoic moieties induce G0/G1 cell cycle arrest and apoptosis in A549 non-small lung cancer and HT-29 colorectal cancer cells” (Molecular and Cellular Biochemistry, 2019).
